Assay results reported in publication PMC11240139, “Exploring the antitumor potential of novel quinoline derivatives via tubulin polymerization inhibition in breast cancer; design, synthesis and molecular docking” (RSC Advances, 2024).

Experiments:
Format in all cases: cell-based
[1] = tested on: CCRF-CEM (leukemia); assay: NCI-60 SRB cytotoxicity screen; conditions: Homo sapiens, single dose 10 μM, read-out: growth inhibition (GI%)
[2] = tested on: HL-60(TB) (leukemia); assay: NCI-60 SRB cytotoxicity screen; conditions: Homo sapiens, single dose 10 μM, read-out: growth inhibition (GI%)
[3] = tested on: K-562 (leukemia); assay: NCI-60 SRB cytotoxicity screen; conditions: Homo sapiens; K-652 [sic], single dose 10 μM; read-out: growth inhibition (GI%)
[4] = tested on: A549/ATCC (non-small cell lung cancer); assay: NCI-60 SRB cytotoxicity screen; conditions: Homo sapiens, single dose 10 μM, read-out: growth inhibition (GI%)
[5] = tested on: HOP-62 (non-small cell lung cancer); assay: NCI-60 SRB cytotoxicity screen; conditions: Homo sapiens; HOP-62, single dose 10 μM; read-out: growth inhibition (GI%)
[6] = tested on: NCI-H23 (non-small cell lung cancer); assay: NCI-60 SRB cytotoxicity screen; conditions: Homo sapiens; NCI-H23, single dose 10 μM; read-out: growth inhibition (GI%)
[7] = tested on: NCI-H322M (non-small cell lung cancer); assay: NCI-60 SRB cytotoxicity screen; conditions: Homo sapiens, single dose 10 μM, read-out: growth inhibition (GI%)
[8] = tested on: NCI-H460 (non-small cell lung cancer); assay: NCI-60 SRB cytotoxicity screen; conditions: Homo sapiens; NCI-H460, single dose 10 μM; read-out: growth inhibition (GI%)
[9] = tested on: NCI-H522 (non-small cell lung cancer); assay: NCI-60 SRB cytotoxicity screen; conditions: Homo sapiens; NCI-H522, single dose 10 μM; read-out: growth inhibition (GI%)
[10] = tested on: HCT-15 (colon cancer); assay: NCI-60 SRB cytotoxicity screen; conditions: Homo sapiens; HCT-15, single dose 10 μM; read-out: growth inhibition (GI%)
[11] = tested on: SF-268 (CNS cancer); assay: NCI-60 SRB cytotoxicity screen; conditions: Homo sapiens; SF-268, single dose 10 μM; read-out: growth inhibition (GI%)
[12] = tested on: SF-539 (CNS cancer); assay: NCI-60 SRB cytotoxicity screen; conditions: Homo sapiens; SF-539, single dose 10 μM; read-out: growth inhibition (GI%)
[13] = tested on: SNB-19 (CNS cancer); assay: NCI-60 SRB cytotoxicity screen; conditions: Homo sapiens; SNB-19, single dose 10 μM; read-out: growth inhibition (GI%)
[14] = tested on: U251 (CNS cancer); assay: NCI-60 SRB cytotoxicity screen; conditions: Homo sapiens, U-251; U251, single dose 10 μM; read-out: growth inhibition (GI%)
[15] = tested on: MDA-MB-435 (melanoma); assay: NCI-60 SRB cytotoxicity screen; conditions: Homo sapiens, MDA-MB-435, read-out: growth inhibition (GI%);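 note: growth inhibition in percent at a single 10 µM dose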
[16] = tested on: SK-MEL-2 (melanoma); assay: NCI-60 SRB cytotoxicity screen; conditions: Homo sapiens; SK-MEL-2, single dose 10 μM; read-out: growth inhibition (GI%)
[17] = tested on: SK-MEL-5 (melanoma); assay: NCI-60 SRB cytotoxicity screen; conditions: Homo sapiens; SK-MEL-5, single dose 10 μM; read-out: growth inhibition (GI%)
[18] = tested on: UACC-62 (melanoma); assay: NCI-60 SRB cytotoxicity screen; conditions: Homo sapiens; UACC-62, single dose 10 μM; read-out: growth inhibition (GI%)
[19] = tested on: OVCAR-4 (ovarian cancer); assay: NCI-60 SRB cytotoxicity screen; conditions: Homo sapiens; OVCAR-4, single dose 10 μM; read-out: growth inhibition (GI%)
[20] = tested on: OVCAR-5 (ovarian cancer); assay: NCI-60 SRB cytotoxicity screen; conditions: Homo sapiens; OVCAR-5, single dose 10 μM; read-out: growth inhibition (GI%)
[21] = tested on: OVCAR-8 (ovarian cancer); assay: NCI-60 SRB cytotoxicity screen; conditions: Homo sapiens; OVCAR-8, single dose 10 μM; read-out: growth inhibition (GI%)
[22] = tested on: SK-OV-3 (ovarian cancer); assay: NCI-60 SRB cytotoxicity screen; conditions: Homo sapiens; SK-OV-3, single dose 10 μM; read-out: growth inhibition (GI%)
[23] = tested on: ACHN (renal cancer); assay: NCI-60 SRB cytotoxicity screen; conditions: Homo sapiens, single dose 10 μM, read-out: growth inhibition (GI%)
[24] = tested on: RXF 393 (renal cancer); assay: NCI-60 SRB cytotoxicity screen; conditions: Homo sapiens; RXF 393, single dose 10 μM; read-out: growth inhibition (GI%)
[25] = tested on: UO-31 (renal cancer); assay: NCI-60 SRB cytotoxicity screen; conditions: Homo sapiens; UO-31, single dose 10 μM; read-out: growth inhibition (GI%)
[26] = tested on: MCF7 (breast cancer); assay: NCI-60 SRB cytotoxicity screen; conditions: Homo sapiens; MCF7, single dose 10 μM; read-out: growth inhibition (GI%)
[27] = tested on: HS 578T (breast cancer); assay: NCI-60 SRB cytotoxicity screen; conditions: Homo sapiens, single dose 10 μM, read-out: growth inhibition (GI%)
[28] = tested on: BT-549 (breast cancer); assay: NCI-60 SRB cytotoxicity screen; conditions: Homo sapiens; BT-549, single dose 10 μM; read-out: growth inhibition (GI%)
[29] = tested on: T-47D (breast cancer); assay: NCI-60 SRB cytotoxicity screen; conditions: Homo sapiens, T47D, single dose 10 μM, read-out: growth inhibition (GI%)
[30] = tested on: MDA-MB-468 (breast cancer); assay: NCI-60 SRB cytotoxicity screen; conditions: Homo sapiens; MDA-MB-468, single dose 10 μM; read-out: growth inhibition (GI%)
Outline: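 NCI-60 single-dose (10^−5 M) screen in MDA-MB-468 with SRB protein-stain read-out after 48 h exposure; cells TCA-fixed and absorbance read at 540 nm. Reported as GI%, with compounds meeting NCI activity criteria then run at five doses (0.01–100 μM).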

[31] = tested on: 60 cancer cell lines (NCI); assay: NCI-60 single-dose screen, overall verdict over the panel; conditions: single dose 10 μM, whole panel
Procedure: The cytotoxic activity of the synthesized quinoline derivatives was determined by the national cancer institute (NCI, Bethesda, Maryland, USA) against 60 different cancer cell lines at a single high dose (10^−5 M) in the full NCI 60 cell panel using the sulforhodamine B assay for cell viability evaluation. In summary, 5 × 10^3 cells were in 96-well plate and incubated in complete media for 24 h. Cells were treated with 100 μL of media containing each newly synthesized compound. After drug exposure, cells were fixed by replacing media with 150 μL of 10% TCA and incubated at 4 °C for 1 h. The TCA solution was removed, and the cells were washed 5 times with distilled water. Aliquots of 70 μL SRB solution (0.4% w/v) were added and incubated in a dark place at room temperature for 10 min. The plates were washed 3 times with 1% acetic acid and allowed to air-dry overnight. Then, 150 μL of TRIS (10 mM) was added to dissolve protein-bound SRB stain. The absorbance was measured at 540 nm.% Cytotoxicity = [1 − (AVx/AVNC)] × 100where AVx denotes the average absorbance of the sample well and AVNC denotes the average absorbance of the negative control.

SMILES | inhibition at 10 µM [1] [%] | inhibition at 10 µM [2] [%] | inhibition at 10 µM [3] [%] | inhibition at 10 µM [4] [%] | inhibition at 10 µM [5] [%] | inhibition at 10 µM [6] [%] | inhibition at 10 µM [7] [%] | inhibition at 10 µM [8] [%] | inhibition at 10 µM [9] [%] | inhibition at 10 µM [10] [%] | inhibition at 10 µM [11] [%] | inhibition at 10 µM [12] [%] | inhibition at 10 µM [13] [%] | inhibition at 10 µM [14] [%] | inhibition at 10 µM [15] [%] | inhibition at 10 µM [16] [%] | inhibition at 10 µM [17] [%] | inhibition at 10 µM [18] [%] | inhibition at 10 µM [19] [%] | inhibition at 10 µM [20] [%] | other results
CCc1cccc2cc(-c3cc(-c4ccc(OC)cc4)[nH]c(=S)c3C#N)c(Cl)nc12 [Compound 5a, 4-(2-Chloro-8-ethylquinolin-3-yl)-6-(4-methoxyphenyl)-2-thioxo-1,2-dihydropyridine-3-carbonitrile] | < 10 | 14.9 | 28.8 | < 10 | < 10 | 11.8 | 17.6 | < 10 | 19.6 | < 10 | 23.1 | < 10 | 13.2 | < 10 | < 10 | < 10 | < 10 | 20.5 | 24.5 | < 10 | inhibition at 10 µM [21]: 10.1%; inhibition at 10 µM [22]: < 10%; inhibition at 10 µM [23]: < 10%; inhibition at 10 µM [24]: 20.6%; inhibition at 10 µM [25]: 19.7%; inhibition at 10 µM [26]: 20.8%; inhibition at 10 µM [27]: 19.8%; inhibition at 10 µM [28]: 20.4%; inhibition at 10 µM [29]: 12.7%; inhibition at 10 µM [30]: 18.7%; cytotoxic activity over the cell lines (in words) [31]: slight cytotoxic activity
CCc1cccc2cc(-c3cc(-c4ccc(Br)cc4)[nH]c(=S)c3C#N)c(Cl)nc12 [Compound 5e, 6-(4-Bromophenyl)-4-(2-chloro-8-ethylquinolin-3-yl)-2-thioxo-1,2-dihydropyridine-3-carbonitrile] | < 10 | < 10 | < 10 | < 10 | < 10 | < 10 | < 10 | < 10 | < 10 | < 10 | < 10 | < 10 | < 10 | < 10 | < 10 | < 10 | < 10 | < 10 | < 10 | < 10 | inhibition at 10 µM [21]: < 10%; inhibition at 10 µM [22]: 11.2%; inhibition at 10 µM [23]: < 10%; inhibition at 10 µM [24]: < 10%; inhibition at 10 µM [25]: 24.1%; inhibition at 10 µM [26]: 19.7%; inhibition at 10 µM [27]: < 10%; inhibition at 10 µM [28]: < 10%; inhibition at 10 µM [29]: 10.4%; inhibition at 10 µM [30]: < 10%; cytotoxic activity over the cell lines (in words) [31]: slight cytotoxic activity
